Source: PubChem BioAssay (NCI)
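Tested at 5 concentrations; 48 h exposure; 96-well plates; endpoints linearly interpolated, else capped at highest concentration. The concentration for full growth arrest is given as TGI.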

Experiments:
Experiment in all cases: DTP human tumour cell line panel, 48 h
OVCAR-4 ovarian = tested on: OVCAR-4 ovarian
K-562 leukemia = tested on: K-562 leukemia
NCI-H226 lung = tested on: NCI-H226 lung
UACC-257 melanoma = tested on: UACC-257 melanoma
SF-295 CNS = tested on: SF-295 CNS
OVCAR-8 ovarian = tested on: OVCAR-8 ovarian
MDA-MB-231 breast = tested on: MDA-MB-231 breast
HCT-116 colon = tested on: HCT-116 colon
M14 melanoma = tested on: M14 melanoma
NCI-H23 lung = tested on: NCI-H23 lung
SF-539 CNS = tested on: SF-539 CNS
PC-3 prostate = tested on: PC-3 prostate
T-47D breast = tested on: T-47D breast
MDA-N = tested on: MDA-N
HOP-62 NSCLC = tested on: HOP-62 NSCLC
OVCAR-5 ovarian = tested on: OVCAR-5 ovarian
NCI-H522 lung = tested on: NCI-H522 lung
SNB-75 CNS = tested on: SNB-75 CNS
HOP-92 NSCLC = tested on: HOP-92 NSCLC
NCI-H460 lung = tested on: NCI-H460 lung
SNB-19 CNS = tested on: SNB-19 CNS
OVCAR-3 ovarian = tested on: OVCAR-3 ovarian
786-0 renal = tested on: 786-0 renal
SK-MEL-2 melanoma = tested on: SK-MEL-2 melanoma
HS 578T breast = tested on: HS 578T breast
HT29 colon = tested on: HT29 colon
NCI/ADR-RES ovarian = tested on: NCI/ADR-RES ovarian
HCT-15 colon = tested on: HCT-15 colon
MALME-3M melanoma = tested on: MALME-3M melanoma
IGROV1 ovarian = tested on: IGROV1 ovarian
BT-549 breast = tested on: BT-549 breast
HCC-2998 colon = tested on: HCC-2998 colon
RXF 393 renal = tested on: RXF 393 renal
SK-MEL-28 melanoma = tested on: SK-MEL-28 melanoma
HL-60(TB) leukemia = tested on: HL-60(TB) leukemia
MOLT-4 leukemia = tested on: MOLT-4 leukemia
COLO 205 colon = tested on: COLO 205 colon
SF-268 CNS = tested on: SF-268 CNS
DU-145 prostate = tested on: DU-145 prostate
UACC-62 melanoma = tested on: UACC-62 melanoma
LOX IMVI melanoma = tested on: LOX IMVI melanoma
SW-620 colon = tested on: SW-620 colon
CCRF-CEM leukemia = tested on: CCRF-CEM leukemia
UO-31 renal = tested on: UO-31 renal
U251 CNS = tested on: U251 CNS
MDA-MB-435 = tested on: MDA-MB-435
SN12C renal = tested on: SN12C renal
RPMI-8226 leukemia = tested on: RPMI-8226 leukemia
SK-OV-3 ovarian = tested on: SK-OV-3 ovarian
EKVX NSCLC = tested on: EKVX NSCLC
KM12 colon = tested on: KM12 colon
CAKI-1 renal = tested on: CAKI-1 renal
ACHN renal = tested on: ACHN renal
A549 NSCLC = tested on: A549 NSCLC
SR leukemia = tested on: SR leukemia
SK-MEL-5 melanoma = tested on: SK-MEL-5 melanoma
TK-10 renal = tested on: TK-10 renal
A498 renal = tested on: A498 renal

Measured: TGI

COc1c(-c2nc3nc(N4CCN(C)CC4)ccc3[nH]2)cc(OC)c2c1nc(CO)n2C
not listed: SR leukemia | SK-MEL-5 melanoma | TK-10 renal | A498 renal
> 100 µM: all other assays above

COc1ccc2c(c1)O[C@@H]1[C@@H](OC3OC(CO)C(O)C(O)C3O)Oc3cc(OC)c(OC)cc3[C@]1(O)C2=O (some centres not stated)
> 100 µM: all assays above
